Laboratory results taken from US20210255168A1, “A METHOD OF PRECISION CANCER THERAPY” (KING FAISAL SPECIALIST HOSPITAL & RESEARCH CENTRE, priority 2018, published 2021).

Experiments:
Assay type in all cases: cell-based
[1] = system: MDA-MB-231 cells; assay: RNAseq analysis of global gene expression
Source text: mRNA was extracted from DMSO- or volasertib-treated […]. cDNA libraries were made for sequencing a measure of transcript copy numbers that correspond to the abundance of each gene (FIG. 6A). […] Among those is 170 ARE-coding genes as derived by crossing with AU-rich element database. (FIG. 6B).

[2] = system: uPA mRNA in MDA-MB-231 cells; assay: mRNA half-life (Actinomycin D, one-phase exponential decay); settings: MDA-MB-231, Actinomycin D 5 μg/ml; DMSO control >6 hr
Method: For half-life experiments, 5 μg/ml of Actinomycin D (ActD; Sigma-Aldrich, St Louis, Mo.) was added to the cells for 1, 2, 4 and 6 h prior to extraction of total RNA using Trizol. The reverse transcription reaction and quantitative PCR were performed as described above. The half-life of mRNAs was estimated using the one-phase exponential decay method using GraphPad Prism software (GraphPad Software, San Diego, Calif.).
To study the influence of PLK-1 inhibition on ARE-containing mRNA stability, the effect of volasertib treatment on the half-life of uPA was analyzed. Half-life of uPA mRNA was reduced from >6 hr to 0.5 hr in response to volasertib treatment compared to the DMSO control (FIG. 12C). […] Compatible with the findings of the inventors, the higher the level of PLK-1, the lower the TTP expression.

[3] = system: MDA-MB-231, MCF7, and SKBR3 cell lines; assay: mRNA expression in breast cancer cell lines
Method: (§1) Cells were cultured in six-well plates and either treated with DMSO or drugs for 24 h. Total RNA was then extracted using Trizol reagent (TRI Reagent, Sigma-Aldrich, St Louis, Mo.). The cells were lysed directly on the culture dish by adding 1 ml of the TRI Reagent per 10 cm^2 surface area. Reverse transcription for preparation of cDNA was performed using 3 μg of total RNA, 150 ng random primers, 0.1 M dithiothreitol (DTT), 10 mM deoxynucleotide triphosphate (dNTP) and 200 U of SuperScript II (Invitrogen, Foster City, Calif.). The quantitative RT-QPCR was performed in multiplex in the Chroma 4 DNA Engine cycler (BioRad, Hercules, Calif., USA) using FAM-labelled TaqMan probes (Applied Biosystems, Foster City, Calif., USA) for TTP (ZFP36), HuR (ELAVL1), uPA (PLAU)-CXCR4, MMP-1, MMP-13, IL-8, PLK-1 while a VIC-labelled glyceraldehyde-3-phosphate dehydrogenase (GAPDH) probe was used as the endogenous control. Samples were amplified in triplicate and quantification of relative expression was performed using the estimation of quantitation cycle (Cq) method.
PLK1 kinase, as an example of kinases involved in cancer, is over-expressed in breast cancer cell lines, including MCF7, MDA-MB-231 and SKBR3 when compared to the normal-like MCF10A (FIG. 5A). Many kinases are either over-expressed or constitutively active or hyperactive in cancer states when compared to normal cells. As example of inhibitors that are found in the precision cancer therapy screen, Volasertib and Regorafenib (VEGFR kinase inhibitor) led to reduction in the level of ARE-containing mRNA, uPA in most of the cancer cell lines. (FIG. 5B).
The present inventors further disclose that the effect of PLK-1 inhibition is consistent among different types of breast cancer including triple-negative, […], and ER-PR negative breast cancers, as shown through the actions induced by PLK-1 inhibitor volasertib on MDA-MB-231, MCF7, and SKBR3 cell lines, namely increasing the expression of TTP, decreasing the HuR level, and downregulating the TTP target uPA. […] Accordingly, the present inventor discloses that any protein kinase inhibitor which post-transcriptionally regulates expression of cancer-related genes is suitable for precision cancer therapy. Further disclosed is a method of treatment of cancer comprising administering said protein kinase inhibitor, to a patient in need thereof.

[4] = system: ARE-containing mRNAs (uPA, IL-8, SLC2A1, uPAR, CXCR4, MMP13, PDL1, HuR) in MDA-MB-231 cells; assay: RT-qPCR of ARE-containing cancer gene mRNAs; settings: MDA-MB-231, 330 nM, 24 hr, vs DMSO
Method: Examples of the effect of several protein kinase inhibitors that were the outcome of the screen assay on one cancer gene, uPA, and a pro-inflammatory cytokine, IL-8 is given in FIG. 3.
(§2) These include IL-8, solute carrier family 2 member 1 (SLC2A1), uPA, uPAR, CXCR4, MMP13, PDL1, and HuR. The MDA-MB-231 cells were treated with 330 nM volasertib or DMSO for 24 hr, then quantitative RT-qPCR was performed in using FAM-labelled TaqMan probe of the above genes and normalized to GADPH (FIG. 11).
as §1, with “Reverse transcription for preparation of cDNA was performed using 3 μg of total RNA, 150 ng random primers, 0.1 M dithiothreitol (DTT), 10 mM deoxynucleotide triphosphate (dNTP) and 200 U of SuperScript II (Invitrogen, Foster City, Calif.).” left out

[5] = system: MDA-MB-231 cells; assay: Invasion assay (RTCA, Matrigel)
Method: (§3) MDA-MB-231 cells were seeded in 6-well cell culture plates and incubated overnight. The cells were treated with the selected protein kinase inhibitors and incubated overnight. Then they were reseeded onto the invasion chamber in serum-free media at a density of 2×10^4 cells per well using 16-well CIM-Plate in Real-Time Cell Analysis (RTCA) Dual Plate (DP) Analyzer (ACEA Bioscinece, California, USA) that was loaded inside the incubator. The lower chambers to which cells will migrate were prepared to contain chemoattractant consisted of 10% FBS. For invasion assays, Matrigel (BioCoat, BD Biosciences, MA) which resembles the complex extracellular environment found in many tissues was prepared and used to coat the upper chamber of CIM plates. Invasion and migration were monitored continuously over 72-hour period using RTCA Software (ACEA Bioscinece, California, USA). The RTCA Instrument automatically monitors the cells every 15 minutes for 100 repetitions. For proliferation assays, the same principle was applied using a single chamber containing complete DMEM media (FIG. 10).
(§4) Based on the dose-response curve, 330 nM was selected to be used as a standard dose for the experiments. In the invasion assay, MDA-MB-231 cells were treated with volasertib or DMSO for 24 hr, then invasion was monitored for 30 hr.

[6] = system: PD-1L; assay: PD-1L expression; settings: FIG. 18
Method: FIG. 18: Volasertib reduces PD-1L expression.
as §2

[7] = system: TTP mRNA in MDA-MB-231 cells; assay: qPCR for TTP mRNA expression; settings: MDA-MB-231, 24 h, vs DMSO
Method: as §1
To study the influence of PLK-1 inhibition on ARE-containing mRNA stability, the effect of volasertib treatment on the half-life of uPA was analyzed. Half-life of uPA mRNA was reduced from >6 hr to 0.5 hr in response to volasertib treatment compared to the DMSO control (FIG. 12C). […]

[8] = system: MDA-MB-231 cells; assay: Migration assay (RTCA, without Matrigel); settings: MDA-MB-231, thirty hours after treatment
Method: as §3, §4

[9] = MDA-MB-231, MCF7, and SKBR3 cell lines

SMILES: CC[C@@H]1C(=O)N(C)c2cnc(Nc3ccc(C(=O)N[C@H]4CC[C@H](N5CCN(CC6CC6)CC5)CC4)cc3OC)nc2N1C(C)C [volasertib]
- number of ARE-coding genes among the down-regulated genes ([1]; crossed with AU-rich element database): 170 genes
- number of genes down-regulated by at least 1.7-fold ([1]; p<0.001, vs DMSO): 540 genes
- half-life of uPA mRNA [2]: 30 min
- level of ARE-containing mRNA uPA in cancer cell lines ([3]; MCF7, MDA-MB-231 and SKBR3, most of the cancer cell lines): reduction
- HuR level [3, 9]: decreasing
- TTP target uPA [3, 9]: downregulating
- expression of TTP [3, 9]: increasing
- expression of all ARE-containing cancer genes (IL-8, SLC2A1, uPA, uPAR, CXCR4, MMP13, PDL1, HuR) [4]: significantly reduced
- invasive behavior ([5]; MDA-MB-231 treated 24 hr, monitored 30 hr, vs DMSO): reduced invasive behavior
- time at which the effect on invasion started ([5]; after treatment): 6 h
- PD-1L expression [6]: reduces
- enhancement of TTP mRNA expression [7]: 40%
- cell migration [8]: reduce breast cancer cells migration
